Here are results for 18 molecules from patent US9670227B2, “Thienopyrimidine derivatives, a process for their preparation and pharmaceutical compositions containing them” (LES LABORATOIRES SERVIER, priority 2013, dated 2017).

Molecules are shown by their SMILES. Like-named read-outs stand apart in the source and are kept apart here.

For one experiment, the target named is Mcl-1 protein (UniProtKB primary accession number: Q07820) (Homo sapiens, UniProt Q07820). Nature of the experiment: Inhibition of Mcl-1 by fluorescence polarisation, Method 1. The experiment is classed as binding. Particulars: read-out: IC50 (M) Mcl-1 FP. In short, it runs like this: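 FP competition, 11-point compound titration in 5% final DMSO; protein and labelled probe at 5 nM and 1 nM final in HEPES/NaCl/Tween 20 buffer, pH 7.4.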
Mcl-1 protein, sequence (Q07820 whole entry): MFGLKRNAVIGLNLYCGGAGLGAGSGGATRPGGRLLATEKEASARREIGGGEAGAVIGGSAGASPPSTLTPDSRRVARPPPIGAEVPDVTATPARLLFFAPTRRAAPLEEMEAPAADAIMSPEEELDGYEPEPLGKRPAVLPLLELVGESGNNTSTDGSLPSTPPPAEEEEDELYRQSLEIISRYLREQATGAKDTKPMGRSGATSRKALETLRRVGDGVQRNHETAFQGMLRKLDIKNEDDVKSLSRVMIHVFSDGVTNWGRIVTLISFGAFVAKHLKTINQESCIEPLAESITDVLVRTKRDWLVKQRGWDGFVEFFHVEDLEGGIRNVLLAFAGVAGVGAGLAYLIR
For orientation: Polarisation of emitted light reports the rotation of a fluorescent probe.

The test system of experiment [1] is H929 multiple myeloma tumour line. The experiment in a line: In vitro cytotoxicity, Microculture Tetrazolium Assay. The experiment is classed as cell-based. To be noted: H929 cells, 48 hours exposure, read-out: IC50 (μM) MTT H929. As to the method: The cytotoxicity studies were carried out on the H929 multiple myeloma tumour line.
The cells are distributed onto microplates and exposed to the test compounds for 48 hours.

The mark [2] stands for this setting: fluorescence polarisation test, Method 2 values are underlined in the patent (underlining not visible here).
Setting [3] is: Homo sapiens, NCI-H929, 48 h, MTT.
The mark [4] stands for this setting: fluorescence polarisation, Method 1, or Method 2.

As for `Cc1c(-c2c(-c3ccco3)sc3ncnc(OC(Cc4ccccc4OCc4cc(-c5ccco5)nn4C)C(=O)O)c23)ccc(OCCN2CCN(C)CC2)c1Cl` [Example 228, (2R)-2-{[(5Sa)-5-{3-chloro-2-methyl-4-[2-(4-methylpiperazin-1-yl)ethoxy]phenyl}-6-(furan-2-yl)thieno[2,3-d]pyrimidin-4-yl]oxy}-3-(2-{[3-(furan-2-yl)-1-methyl-1H-pyrazol-5-yl]methoxy}phenyl)propanoic acid], the IC50 on Mcl-1 protein (setting [2]) was found to be 2.2e-08 M; in experiment [1] (setting [3]) it was 0.166 µM.

In the case of `COc1ccccc1-c1nccc(COc2ccccc2CC(Oc2ncnc3sc(-c4cccc(F)c4)c(-c4ccc(OCCN5CCN(C)CC5)c(Cl)c4C)c23)C(=O)O)n1` [Example 836, (2R)-2-{[(5Sa)-5-{3-chloro-2-methyl-4-[2-(4-methylpiperazin-1-yl)ethoxy]phenyl}-6-(3-fluorophenyl)thieno[2,3-d]pyrimidin-4-yl]oxy}-3-(2-{[2-(2-methoxyphenyl)pyrimidin-4-yl]methoxy}phenyl)propanoic acid], the IC50 was found to be 2.8e-09 M at Mcl-1 protein (fluorescence polarisation test, Method 1, or Method 2 where the value is underlined (underlining not visible)) and 0.002 µM in experiment [1] (Homo sapiens, NCI-H929, 48 h, cell viability).

Regarding `COc1ccccc1-c1nccc(COc2ccccc2CC(Oc2ncnc3sc(-c4ccc(OCc5ccsc5)cc4)c(-c4ccc(OCCN5CCN(C)CC5)c(Cl)c4C)c23)C(=O)O)n1` [Example 778, (2R)-2-[((5Sa)-5-{3-chloro-2-methyl-4-[2-(4-methylpiperazin-1-yl)ethoxy]phenyl}-6-[4-(thiophen-3-ylmethoxy)phenyl]thieno[2,3-d]pyrimidin-4-yl)oxy]-3-(2-{[2-(2-methoxyphenyl)pyrimidin-4-yl]methoxy}phenyl)propanoic acid], the IC50 at Mcl-1 protein (setting [4]) stood at 1.09e-09 M; in experiment [1] (setting [3]) it was 0.013 µM.

Regarding `CCc1sc2ncnc(OC(Cc3ccccc3)C(=O)O)c2c1-c1ccc(OCCNC(C)=O)c(Cl)c1C` [Example 422, (2R)-2-[((5Sa)-5-{4-[2-(acetylamino)ethoxy]-3-chloro-2-methylphenyl}-6-ethylthieno[2,3-d]pyrimidin-4-yl)oxy]-3-phenylpropanoic acid], the 50% inhibitory concentration (IC50) came out at 1.4e-08 M on Mcl-1 protein (setting [4]) and 14.4 µM in experiment [1] (setting [3]).

With `CCCCn1nccc1COc1ccccc1CC(Oc1ncnc2sc(C(F)(F)F)c(-c3ccc(OCCN4CCN(C)CC4)c(Cl)c3C)c12)C(=O)O` [Example 615, (2R)-3-{2-[(1-butyl-1H-pyrazol-5-yl)methoxy]phenyl}-2-{[(5Sa)-5-{3-chloro-2-methyl-4-[2-(4-methylpiperazin-1-yl)ethoxy]phenyl}-6-(trifluoromethyl)thieno[2,3-d]pyrimidin-4-yl]oxy}propanoic acid], the results for the IC50 (at Mcl-1 protein (setting [4]); in experiment [1] (setting [3])) were 8e-10 M and 0.292 µM, respectively.

Regarding `Cc1c(-c2c(-c3ccco3)sc3ncnc(OC(Cc4ccccc4OCC(=O)N(C)C)C(=O)O)c23)ccc(OCCN2CCN(C)CC2)c1Cl` [Example 217, (2R)-2-{[(5Sa)-5-{3-chloro-2-methyl-4-[2-(4-methylpiperazin-1-yl)ethoxy]phenyl}-6-(furan-2-yl)thieno[2,3-d]pyrimidin-4-yl]oxy}-3-{2-[2-(dimethylamino)-2-oxoethoxy]phenyl}propanoic acid], the figures for the half-maximal inhibitory concentration (IC50) (on Mcl-1 protein (setting [2]); in experiment [1] (setting [3])) were 5.3e-09 M and 1.48 µM, respectively.

`COc1ccccc1CC(Oc1ncnc2sc(-c3ccco3)c(-c3ccc(OCC4CN(C)CCO4)c(Cl)c3C)c12)C(=O)O` [Example 314, (2R)-2-{[(5Sa)-5-{3-chloro-2-methyl-4-[(4-methylmorpholin-2-yl)methoxy]phenyl}-6-(furan-2-yl)thieno[2,3-d]pyrimidin-4-yl]oxy}-3-(2-methoxyphenyl)propanoic acid]: the 50% inhibitory concentration (IC50) on Mcl-1 protein (setting [2]) is 6.9e-09 M; in experiment [1] (setting [3]), 1.82 µM.

In the case of `Cc1c(-c2c(-c3ccc(F)cc3)sc3ncnc(OC(Cc4ccccc4OCc4cnccn4)C(=O)O)c23)ccc(OC2CCCN(C)C2)c1Cl` (single isomer, unassigned) [Example 141, (2R)-2-{[(5Sa)-5-{3-chloro-2-methyl-4-[((3S or R)-1-methylpiperidin-3-yl)oxy]phenyl}-6-(4-fluorophenyl)thieno[2,3-d]pyrimidin-4-yl]oxy}-3-[2-(pyrazin-2-ylmethoxy)phenyl]propanoic acid], the concentration for half-maximal inhibition (IC50) on Mcl-1 protein (setting [2]) came out at 3.1e-08 M; in experiment [1] (MTT), 0.27 µM.

As for `COc1ccccc1CC(Oc1ncnc2sc(-c3ccc(F)cc3)c(-c3ccc(OCCN4CCN(C)CC4)c(Cl)c3C)c12)C(=O)OCc1oc(=O)oc1C` [Example 644, (5-methyl-2-oxo-1,3-dioxol-4-yl)methyl (2R)-2-{[(5Sa)-5-{3-chloro-2-methyl-4-[2-(4-methylpiperazin-1-yl)ethoxy]phenyl}-6-(4-fluorophenyl)thieno[2,3-d]pyrimidin-4-yl]oxy}-3-(2-methoxyphenyl)propanoate], the IC50 was 3.7e-07 M at Mcl-1 protein (setting [4]) and 0.248 µM in experiment [1] (setting [3]).

As for `COc1ccccc1CC(Oc1ncnc2sc(-c3ccco3)c(-c3ccc(OCCN)c(Cl)c3C)c12)C(=O)O` [Example 319, (2R)-2-({(5Sa)-5-[4-(2-aminoethoxy)-3-chloro-2-methylphenyl]-6-(furan-2-yl)thieno[2,3-d]pyrimidin-4-yl}oxy)-3-(2-methoxyphenyl)propanoic acid], the IC50 worked out at 1.5e-08 M on Mcl-1 protein (setting [2]) and 0.834 µM in experiment [1] (setting [3]).

With `Cc1c(-c2c(-c3ccco3)sc3ncnc(OC(Cc4ccccc4O)C(=O)O)c23)ccc(OCCN2CCN(C)CC2)c1Cl` [Example 207, (2R)-2-{[-[(5Sa)-5-{3-chloro-2-methyl-4-[2-(4-methylpiperazin-1-yl)ethoxy]phenyl}-6-(furan-2-yl)thieno[2,3-d]pyrimidin-4-yl]oxy}-3-(2-hydroxyphenyl)propanoic acid], the IC50 at Mcl-1 protein (setting [2]) stood at 6.5e-09 M; in experiment [1] (setting [3]), 0.186 µM.

On to `CCc1sc2ncnc(OC(Cc3ccccc3OCc3ccnc(OC)n3)C(=O)O)c2c1-c1ccc(OCCN2CCN(C)CC2)c(Cl)c1C` [Example 455, (2R)-2-[((5Sa)-5-{3-chloro-2-methyl-4-[2-(4-methylpiperazin-1-yl)ethoxy]phenyl}-6-ethylthieno[2,3-d]pyrimidin-4-yl)oxy]-3-{2-[(2-methoxypyrimidin-4-yl)methoxy]phenyl}propanoic acid], for which the values for the IC50 (at Mcl-1 protein (setting [4]); in experiment [1] (setting [3])) were 6.2e-09 M and 0.339 µM, respectively.

As to `COc1ccccc1CC(Oc1ncnc2sc(-c3ccco3)c(-c3ccc(OCC4CCN(C)C4)c(Cl)c3C)c12)C(=O)O` [Example 310, (2R)-2-{[(5Sa)-5-{3-chloro-2-methyl-4-[(1-methylpyrrolidin-3-yl)methoxy]phenyl}-6-(furan-2-yl)thieno[2,3-d]pyrimidin-4-yl]oxy}-3-(2-methoxyphenyl)propanoic acid], the half-inhibitory concentration (IC50) is 1.4e-08 M on Mcl-1 protein (setting [2]) and 0.26 µM in experiment [1] (setting [3]).

On to `Cc1c(-c2c(-c3ccc(Cl)o3)sc3ncnc(OC(Cc4ccccc4OCC(F)(F)F)C(=O)O)c23)ccc(OCCN2CCN(C)CC2)c1Cl` [Example 365, (2R)-2-{[6-(5-chlorofuran-2-yl)-(5Sa)-5-{3-chloro-2-methyl-4-[2-(4-methylpiperazin-1-yl)ethoxy]phenyl}thieno[2,3-d]pyrimidin-4-yl]oxy}-3-[2-(2,2,2-trifluoroethoxy)phenyl]propanoic acid], for which the IC50 at Mcl-1 protein (setting [2]) was found to be 5.9e-09 M; in experiment [1] (setting [3]), 0.026 µM.

`CNC(=O)COc1ccccc1CC(Oc1ncnc2sc(-c3ccco3)c(-c3ccc(OCCN4CCN(C)CC4)c(Cl)c3C)c12)C(=O)O` [Example 218, (2R)-2-{[(5Sa)-5-{3-chloro-2-methyl-4-[2-(4-methylpiperazin-1-yl)ethoxy]phenyl}-6-(furan-2-yl)thieno[2,3-d]pyrimidin-4-yl]oxy}-3-{2-[2-(methylamino)-2-oxoethoxy]phenyl}propanoic acid]: the results for the half-inhibitory concentration (IC50) (on Mcl-1 protein (setting [2]); in experiment [1] (setting [3])) were 6.5e-09 M and 0.805 µM, respectively.

For the molecule `COCCN1CCN(CCOc2ccc(-c3c(-c4ccco4)sc4ncnc(OC(Cc5ccccc5OC)C(=O)O)c34)c(C)c2Cl)CC1` [Example 330, (2R)-2-{[(5Sa)-5-(3-chloro-4-{2-[4-(2-methoxyethyl)piperazin-1-yl]ethoxy}-2-methylphenyl)-6-(furan-2-yl)thieno[2,3-d]pyrimidin-4-yl]oxy}-3-(2-methoxyphenyl)propanoic acid], the values for the IC50 (at Mcl-1 protein (setting [2]); in experiment [1] (setting [3])) were 8.3e-09 M and 1.17 µM, respectively.

In the case of `Cc1c(-c2c(-c3ccc(F)cc3)sc3ncnc(OC(Cc4ccccc4OCc4cccc(-c5ccco5)n4)C(=O)O)c23)ccc(OCCN2CCN(C)CC2)c1Cl` [Example 11, (2R)-2-{[(5Sa)-5-{3-chloro-2-methyl-4-[2-(4-methylpiperazin-1-yl)ethoxy]phenyl}-6-(4-fluorophenyl)thieno[2,3-d]pyrimidin-4-yl]oxy}-3-(2-{[6-(furan-2-yl)pyridin-2-yl]methoxy}phenyl)propanoic acid], the IC50 on Mcl-1 protein (setting [2]) stood at 4.4e-08 M; in experiment [1] (setting [3]), 0.13 µM.

For `COc1ccccc1-c1nccc(COc2ccccc2CC(Oc2ncnc3sc(-c4ccc(OCc5ccccn5)cc4)c(-c4ccc(OCCN5CCN(C)CC5)c(Cl)c4C)c23)C(=O)O)n1` [Example 769, (2R)-2-[((5Sa)-5-{3-chloro-2-methyl-4-[2-(4-methylpiperazin-1-yl)ethoxy]phenyl}-6-[4-(pyridin-2-ylmethoxy)phenyl]thieno[2,3-d]pyrimidin-4-yl)oxy]-3-(2-{[2-(2-methoxyphenyl)pyrimidin-4-yl]methoxy}phenyl)propanoic acid], the IC50 on Mcl-1 protein (setting [4]) was 9.48e-10 M; in experiment [1] (setting [3]), 0.01 µM.

The term IC50 denotes the concentration that gives 50% inhibition.
